Assay results as given in US8207402B2, “Nucleotide sequences encoding enzymes in biosynthesis of dihydroartemisinic acid” (National Research Council of Canada, priority 2006, dated 2012).

Assays:
recombinant AaALDH1 = target: T1, recombinant AaALDH1 (Artemisia annua, UniProt C5I9X1); assay: Characterization of purified recombinant AaALDH1 (kinetic parameters, substrate specificity); format: biochemical; details: for substrate for the recombinant AaALDH1: optimum assay conditions, substrate concentration at 10 times the estimated Km; for Km / Vmax: purified recombinant AaALDH1, 50 mM Tris-HCl buffer, pH 8.5, means of three independent experiments
T1 construct: made in house; host or cells: E. coli BL21(DE3)
Method: Purification of Recombinant AaALDH1
Cell-free extract of recombinant AaALDH1 was prepared as described above. The cell-free extract was centrifuged at 20,000 g at 4° C. for 15 minutes to remove any remaining insoluble materials before loading onto a His-Trap FF column (Amersham Bioscience, N.J.) equilibrated with binding buffer (20 mM sodium phosphate buffer containing 500 mM NaCl and 20 mM imidazole at pH 7.5). The column was washed with 5 column volume of binding buffer and the recombinant AaALDH1 eluted with elution buffer (20 mM sodium phosphate, 500 mM NaCl, pH 7.5) containing increasing concentration of imidazole in a step-wise fashion. The eluted fractions were concentrated and desalted in centrifugal filter devices (Amicon Ultra—15) (Millipore, Mass.) following manufacturer's protocol. The purity of the recombinant AaALDH1 was checked with SDS gel stained with Rapid Stain (Biosciences, St. Louis, Mo.).
Characterization of Purified Recombinant AaALDH1
The linearity of the assay with respect to time and protein concentration was first established and the operational saturation of substrate and cofactor determined. The pH optimum was determined by the standard assay in 50 mM buffer (sodium phosphate, Tris-HCl and CHES) from pH 6.0 to 10.0 at 0.5 unit interval containing 1 mM NADP and 1.5 micrograms of the purified recombinant AaALDH1. Kinetic parameters were determined in 50 mM Tris-HCl buffer, pH 8.5 by varying the concentration of the substrates. Kinetic constants were determined by non-linear regression analysis using GraphPad software (GraphPad Software Inc. San Diego, Calif.) and the results presented are the means of three independent experiments. Substrates specificity was determined at optimum reaction conditions with substrates concentration at 10 times the estimated Km value. Substrates tested include artemisinic aldehyde, (11R)-dihydroartemisinic aldehyde, artemisinic alcohol, dihydroartemisinic alcohol, octanal, nonanal, 2-phenyl propionaldehyde, 3-cyclohexyl propionaldehyde, 2-hexen-1-al, syringaldehyde.

[1] = target: T2, recombinant His-tagged AaALDH1 (Artemisia annua, UniProt C5I9X1); assay: In vitro cell-free assay of recombinant His-tagged AaALDH1, GC/MS; format: biochemical; details: E. coli cell-free extract, 1 mM NADP, pH 8.5, 30 minutes at 30° C.
T2 construct: made in house; host or cells: E. coli BL21(DE3)
Method: (§1) The plasmid pKT032 or pKT041 was introduced into E. coli strain BL21(DE3) (Novagen) using heat shock at 42° C. The GUS gene (Invitrogen) was cloned into pDEST17 to replace the ccdB gene and the construct pDEST-GUS introduced into the E. coli strain BL21(DE3) was used as a control. Transformants were grown on Luria Broth (LB) and selected on ampicillin (100 μg/mL) at 37° C. for 24 hours. A single colony containing pKT032 or pKT041 was used to inoculate 5 mL of LB liquid medium with ampicillin (LBA) and grown at 37° C. overnight with shaking. The overnight culture was used to inoculate 250 mL of LBA liquid medium and grown at 37° C. with shaking to an OD600 of 0.6 per mL followed by induction with 1 mM IPTG and grown at 30° C. overnight with shaking. Cells were pelleted at 2,000 g at 4° C. for 10 minutes. The pelleted cells were resuspended in 6 mL of lysis buffer consisting of 50 mM sodium phosphate, pH 8.0, 0.1 M NaCl, 20 mM imidazole and 1 mM phenylmethylsufonyl fluoride (PMSF). Cells were lysed with lysozyme (0.2 mg/mL of cells) on ice for 30 minutes followed by sonication on ice with 30s pulse (5×). Protein concentration was determined by Bradford assay (Bio-Rad). The AaDBR1 protein was detected by silver stain on SDS gel and confirmed by Western Blot using Anti-His antibody (Invitrogen). The AaALDH1 protein was detected by Rapid Stain (Bioscience, St. Louis, Mo.) on SDS gel. […]

Plasmodium falciparum = details: more active than artesunate; cited from earlier work
[2] = tested on: recombinant His-tagged AaDBR1; assay: In vitro cell-free assay of recombinant His-tagged AaDBR1, GC/MS; format: biochemical, Artemisia annua; details: E. coli cell-free extract, 1 mM NADPH, pH 7.5, 30 minutes at 30° C.
Method: as §1

T1 sequence (C5I9X1 with tags, fused parts or gaps): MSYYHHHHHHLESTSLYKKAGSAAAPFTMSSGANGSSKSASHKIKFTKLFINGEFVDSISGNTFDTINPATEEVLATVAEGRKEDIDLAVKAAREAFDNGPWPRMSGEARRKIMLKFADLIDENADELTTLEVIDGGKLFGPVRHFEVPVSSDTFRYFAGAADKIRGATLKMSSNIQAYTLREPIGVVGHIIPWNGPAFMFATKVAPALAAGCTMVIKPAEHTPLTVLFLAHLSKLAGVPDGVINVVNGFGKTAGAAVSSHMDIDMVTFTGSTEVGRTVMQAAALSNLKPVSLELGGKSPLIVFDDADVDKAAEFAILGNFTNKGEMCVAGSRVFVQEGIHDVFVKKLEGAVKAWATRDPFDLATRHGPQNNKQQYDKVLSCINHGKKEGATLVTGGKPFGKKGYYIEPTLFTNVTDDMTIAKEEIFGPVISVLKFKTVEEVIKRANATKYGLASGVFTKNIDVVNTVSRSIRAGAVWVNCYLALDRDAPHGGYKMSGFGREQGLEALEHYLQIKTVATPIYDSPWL
T2 sequence (C5I9X1 with tags, fused parts or gaps): as above

SMILES | substrate for the recombinant AaALDH1 (recombinant AaALDH1) | product formation by AaALDH1 cell-free extract (GC/MS, FIG. 11) [1] | activity relative to artesunate (Plasmodium falciparum) | Km (recombinant AaALDH1) [µM] | Vmax (recombinant AaALDH1) [pkat/μg protein] | product formation by AaDBR1 cell-free extract (GC/MS, FIG. 10) [2]
CC1=C[C@H]2[C@@H](CC1)[C@H](C)CC[C@H]2[C@@H](C)C=O [(11R)-dihydroartemisinic aldehyde] | found to be a substrate | NADP-dependent formation of dihydroartemisinic acid | – | – | – | –
C[C@H]1[C@H](N2CCS(=O)(=O)CC2)O[C@@H]2O[C@@]3(C)CC[C@H]4[C@H](C)CC[C@@H]1[C@@]24OO3 [Artemisone] | – | – | 10-30 fold | – | – | –
C=C(C=O)[C@@H]1CC[C@@H](C)[C@@H]2CCC(C)=C[C@@H]21 [artemisinic aldehyde] | found to be a substrate | – | – | 2.62 | 28.6 | NADPH-dependent formation of (11S)-dihydroartemisinic aldehyde as the major product
CC1=C[C@H]2[C@@H](CC1)[C@H](C)CC[C@H]2[C@@H](C)C(=O)O [dihydroartemisinic acid] | – | – | – | 8.79 | 143.8 | –
